Results from patent US20010039291A1, “Compositions and methods of treatment for cancer or viral infections” (The Procter & Gamble Company, priority 1995, published 2001).
Converted amounts (≈) assume the structure as drawn.

How the values were obtained:
Rhinovirus, type A-1 = experiment: In vitro screening for Rhinovirus; type: cell-based; conditions: cell line WI-38
From the text: The positive control was A-36683 of Abbot Company, (S,S)-1,2-bis(5-methoxy-2-benzimidazolyl)-1,2-ethanediol. […] (See Schleicher et al, Applied Microbiology, 23, No. 1, 113-116 (1972).

A549 lung tumor cells = experiment: MTT cell viability test, lung tumor cells; type: cell-based; conditions: Homo sapiens, 120 h, about 5 day incubation, read-out: EC-50 Result
MX1 breast cells = experiment: MTT cell viability test, breast tumor cells; type: cell-based; conditions: Homo sapiens, 120 h, about 5 day incubation, read-out: EC-50 Result
HT29 colon tumor cells = experiment: MTT cell viability test, colon tumor cells; type: cell-based; conditions: Homo sapiens, HT-29, 120 h, about 5 day incubation, read-out: EC-50 Result
[1] = tested on: human tumor colony forming units; experiment: In vitro human tumor colony forming units test; type: cell-based; conditions: for effectiveness against tumor types / tumors with ≦50% survival: continuous exposure
Procedure: Solid tumors removed by patients are minced into 2 to 5 mm fragments and immediately placed in McCoy's Medium 5A plus 10% heat inactivated newborn calf serum plus 1% penicillin/streptomycin. Within 4 hours, these solid tumors are mechanically disassociated with scissors, forced through No. 100 stainless steel mesh, through 25 gauge needles, and then washed with McCoy's medium as described above. Ascitic, pleural, pericardial fluids and bone marrow are obtained by standard techniques. The fluid or marrow is placed in sterile containers containing 10 units of preservative free heparin per ml. of malignant fluid or marrow. After centrifugation at 150×g for 10 minutes, the cells are harvested and washed with McCoy's medium plus 10% heat inactivated calf serum. The viability of cell suspensions is determined on a hemocytometer with trypan blue.
Cells to be cloned are suspended in 0.3% agar in enriched CMRL1066 supplemented with 15% heat inactivated horse serum, penicillin (100 units/ml), streptomycin (2 mg/ml), glutamine (2 mM), insulin (3 units/ml), asparagine (0.6 mg/ml), and HEPES buffer (2 mM). For the continuous exposure test each compound is added to the above mixture. Cells are placed in 35 mm petri dishes in a top layer of agar over an underlayer of agar to prevent growth of fibroblasts. Three plates are prepared for each data point. The plates are placed in a 37° C. incubator, and are removed on day 14 for counting of the number of colonies in each plate. The number of colonies (defined as 50 cells) formed in the 3 compound treated plates is compared to the number of colonies formed in the 3 control plates, and the percent colonies surviving at the concentration of compound can be estimated. Three positive control plates are used to determine survival rate. Orthosodium vanadate at 200 μg/ml is used as the positive control. If there is <30% colonies in the positive control when compared to the untreated control, the test is evaluated.

[2] = tested on: Human influenza virus, strain AT2/Taiwan/1/64; experiment: Anti-viral evaluation with human influenza virus in mice; type: in vivo; conditions: oral lavage, observed 21 days after challenge

COc1ccc2nc([C@H](O)[C@@H](O)c3nc4ccc(OC)cc4[nH]3)[nH]c2c1 [A-36683, (S,S)-1,2-bis(5-methoxy-2-benzimidazolyl)-1,2-ethanediol, reference compound]
therapeutic index (ratio of the toxic dose to the efficacious dose) (Rhinovirus, type A-1): 1000-3200

COc1cccc2c1C(=O)c1c(O)c3c(c(O)c1C2=O)C[C@@](O)(C(=O)CO)C[C@@H]3O[C@H]1C[C@H](N)[C@H](O)[C@H](C)O1 [Adriamycin, reference compound]
EC50 (A549 lung tumor cells): 0.00373 µg/mL (≈ 0.00686 µM)
EC50 (MX1 breast cells): 0.00078 µg/mL (≈ 0.00144 µM)
EC50 (HT29 colon tumor cells): 0.00639 µg/mL (≈ 0.0118 µM)

CCCC1COC(Cn2cncn2)(c2ccc(Cl)cc2Cl)O1 (centres unmarked) [Propiconazole, 1-[2-(2,4-dichlorophenyl)4-propyl-1,3-dioxolan-2-ylmethyl]-1H-1,2,4-triazole]
effectiveness against tumors ([1]; 0.5 μg/ml, continuous exposure test): not effective
tumors responding (effective/tested) ([1]; 0.5 μg/ml, single dose experiment): 0/1
effectiveness against tumor types ([1]; 5.0 μg/ml): effective against breast, head and neck, melanoma and ovarian cancers
tumors with ≦50% survival ([1]; 5.0 μg/ml): 5 of 26
effectiveness against tumor types ([1]; 50.0 μg/ml): effective against breast, colon, head and neck, lung (non-small cell), melanoma, ovarian, stomach, and uterine cancers
tumors with ≦50% survival ([1]; 50.0 μg/ml): 18 of 25
EC50 (A549 lung tumor cells): 0.113 µg/mL (≈ 0.33 µM)
EC50 (MX1 breast cells): 0.0284 µg/mL (≈ 0.083 µM)
mice survived ([2]; 175 mg/kg dose, saline control no mice survived): 40%
mice survived ([2]; 350 mg/kg dose): 57%
effective concentration (Rhinovirus, type A-1): 32 µg/mL
therapeutic index (ratio of the toxic dose to the efficacious dose) (Rhinovirus, type A-1): 1-3
EC50 (HT29 colon tumor cells): 0.0331 µg/mL (≈ 0.0967 µM)
